Assay results published in article PMC7156458, “Synthetic biology based construction of biological activity-related library of fungal decalin-containing diterpenoid pyrones” (Nature Communications, 2020).
Several values for one entry are separate records, joined by “and”; a condition that tells them apart may be missing. Equal entries are not always repeated. Entries after “also recorded” stand apart in the source; their conditions may differ.

Tests used:
[1] = test system: hepatitis B virus (HBV), measles virus (MV), Epstein-Barr virus (EBV), herpes simplex virus (HSV); test: preliminary anti-viral screening (other viruses); format: cell-based
From the text: We examined the inhibitory activities of DDPs against various species of bacteria (both gram-negative and gram-positive bacteria), fungi and viruses. […] In contrast, preliminary screening of the DDPs for anti-viral agents with hepatitis B virus (HBV), measles virus (MV), Epstein-Barr virus (EBV), herpes simplex virus (HSV) and human immunodeficiency virus-1 (HIV-1) indicated their selective inhibition of HIV.

[2] = test system: MCF-7 cells; test: mammosphere formation assay; format: cell-based, human; conditions: MCF-7, 5 μM
Method: (§1) We also evaluated antiproliferative activity against cancer stem cells (CSCs), which are a small sub-population in tumour bulk identified in most cancer cells and clinical samples[52]. CSCs have been a major problem in cancer therapy because they are responsible for recurrence, metastasis and drug resistance to chemotherapeutic agents that affect proliferative cells[53]–[56]. Anti-CSC activity was evaluated by the inhibition of sphere-forming ability, a well-studied method to enrich the CSC-like population, and selective cytotoxicity against one of the most reliable CSC markers, aldehyde dehydrogenase (ALDH)-positive cells. […] Low-toxicity 16 was also added as a negative control. […] We next evaluated the three DDPs that inhibited mammosphere formations against ALDH-positive cells, a functional marker for breast CSCs. MCF-7 cells were treated with 1 μM of 11, 12 or 22, and the ALDH-positive cell population was analysed by using a fluorescence activated cell sorter (Supplementary Fig. 46b). […] Thus, for the first time, we successfully found DDPs with potent antiproliferative effects on the CSC-like population in MCF-7 cells, which may lead to new anti-CSC drugs.
(§2) Fig. 5 DDPs show anti-CSC activity in breast cancer cell line MCF-7. a Effect of DDPs on mammosphere formation. After the cells were cultured in the presence of 5 μM DDPs for 7 days, the number of mammospheres was microscopically counted and the percentage of mammosphere-forming cells was determined as mammosphere-forming efficiency (MFE; %). Data represent mean ± s.d. from three independent replicate experiments. P-values were calculated by a two-sided unpaired Student’s t-test, compared with control. b Micrographs show representative images of mammosphere formation from three independent replicate experiments using compound 11, 12, 16, 22. The scale bar, […]. c Effect of DDPs (1 μM, 3 days) on ALDH-positive cells in MCF-7 cells. Data represent mean ± s.d. from three independent replicate experiments. P-values were calculated by a two-sided unpaired Student’s t-test, compared with control. d Dose-dependent effect of compound 12 on ALDH-positive cells in MCF-7 cells. Data represent mean ± s.d. from three independent replicate experiments. P-values were calculated by a two-sided unpaired Student’s t-test. Source data underlying Fig. 5a, c, d are provided in a Source Data file.

[3] = test system: MKN74; test: cells; design: species or system JFCR39 human cancer cell lines; JFCR39 panel growth inhibition, sulforhodamine B total protein after 48 h; conditions: 48 h; inhibitor; Log GI50, 48 h
In short: (§3)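 GI50 values derive from sulforhodamine B measurement of total cellular protein after 48 hours of treatment, run in duplicate. Cells of the 39-line JFCR39 panel grew in RPMI-1640 containing 5% fetal bovine serum at 37°C under 5% CO2.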

[4] = test system: St-4; test: cells; design: species or system JFCR39 human cancer cell lines; JFCR39 panel growth inhibition, sulforhodamine B total protein after 48 h; conditions: Homo sapiens, St-4, 48 h
In short: as §3

[5] = test system: BSY-1; test: cells; design: species or system JFCR39 human cancer cell lines; JFCR39 panel growth inhibition, sulforhodamine B total protein after 48 h; conditions: 48 h; inhibitor; Log GI50, 48 h
In short: as §3

[6] = test system: OVCAR-8; test: cells; design: species or system JFCR39 human cancer cell lines; JFCR39 panel growth inhibition, sulforhodamine B total protein after 48 h; conditions: Homo sapiens, OVCAR-8, 48 h
In short: as §3

[7] = test system: NCI-H226; test: cells; design: species or system JFCR39 human cancer cell lines; JFCR39 panel growth inhibition, sulforhodamine B total protein after 48 h; conditions: 48 h; inhibitor; Log GI50, 48 h
In short: as §3

[8] = test system: ALDH-positive cells in MCF-7 cells; test: ALDH-positive cell population (ALDEFLUOR, flow cytometry); format: cell-based, human; conditions: for ALDH (+) Cell number (10^4 cells) ave: 0 µM 1.61; for ALDH (-) Cell number (10^4 cells) ave: 0 µM 133.39; for ALDH (+) Cell number ave (fold) / ALDH (-) Cell number ave (fold): 0 µM = 1
Method: as §1, §2
!" ' ' '! !" ' ' '! !" ' ' '!!" ' ' '!!" ' ' '!!" ' ' '!!" ' ' '!!" ' ' '! !" ' ' '! !" ' ' '! !" ' ' '! !"#$ ( % ) * '! '' '# '+ '$ '( '% […]
Main population Single cells Single cells
(negative control) Without DEAB […]
P-values are calculated using a two-sided unpaired Student’s t-test; * p < 0.05, ** p < 0.01, compared with control. b, Gating strategy of flow cytometry analysis for detecting ALDH-positive cells. All samples were analyzed by sequential gating including main population (G1), single cells (G2, G3). Negative control with DEAB was used to establish G4 (ALDH-negative cells) and G5 (ALDH-positive cells). […]
Policy information about cell lines […]
were distributed from National Cancer Institute (Frederick, MD). HT-29, MCF-7, DU-145 and PC-3 were purchased from […]

[9] = MCF-7, 0.1 µM, single replicates
[10] = MCF-7, 0.3 µM, single replicates

C=C1CCC2C(C)(CCC=C(C)C)C(O)CCC2(C)C1Cc1c(OC)oc(CO)c(C)c1=O (stereo not drawn) [Compound 12]
effect on other viruses [1]: without affecting other viruses
effect on sphere formation [2]: clearly inhibited sphere formation; also recorded: strongest effect on sphere formation
MFE (%) ave ([2]; 7 days, mean of 3, control 0.87): 0.21%
MFE (control = 1) ave ([2]; 7 days, relative to control = 1): 0.24
MFE (%) ([2]; 7 days, single replicates): 0.18% and 0.21% and 0.23%
Log GI50 [3]: -5.381 M
GI50 [4]: 14.1 µM
Log GI50 [5]: -5.304 M
GI50 [6]: 5.64 µM
Log GI50 [7]: -4.935 M
ALDH (+) Cell number (10^4 cells) ave ([8]; MCF-7, 0.1 µM): 0.68 10^4 cells
ALDH (-) Cell number (10^4 cells) ave ([8]; MCF-7, 0.1 µM): 96.66 10^4 cells
ALDH (+) Cell number ave (fold) ([8]; MCF-7, 0.1 µM): 0.42 fold
ALDH (-) Cell number ave (fold) ([8]; MCF-7, 0.1 µM): 0.72 fold
ALDH (+) Cell number (10^4 cells) [8, 9]: 0.81 10^4 cells and 0.72 10^4 cells and 0.50 10^4 cells
ALDH (-) Cell number (10^4 cells) [8, 9]: 89.19 10^4 cells and 102.28 10^4 cells and 98.51 10^4 cells
ALDH (+) Cell number (10^4 cells) ave ([8]; MCF-7, 0.3 µM): 0.09 10^4 cells
ALDH (-) Cell number (10^4 cells) ave ([8]; MCF-7, 0.3 µM): 33.24 10^4 cells
ALDH (+) Cell number ave (fold) ([8]; MCF-7, 0.3 µM): 0.0565 fold
ALDH (-) Cell number ave (fold) ([8]; MCF-7, 0.3 µM): 0.25 fold
ALDH (+) Cell number (10^4 cells) [8, 10]: 0.054 10^4 cells and 0.12 10^4 cells and 0.10 10^4 cells
ALDH (-) Cell number (10^4 cells) [8, 10]: 26.95 10^4 cells and 38.88 10^4 cells and 33.90 10^4 cells
population of ALDH-positive cells ([8]; MCF-7, 1 μM): reduced the population of ALDH-positive cells
ALDH-positive cells ave (fold) ([8]; MCF-7, 1 μM, 3 days, control = 1): 0.29 fold
ALDH-positive cells ave ([8]; MCF-7, 1 μM, 3 days, mean of 3, control 1.4): 0.40%
ALDH-positive cells (%) ([8]; MCF-7, 1 μM, 3 days, single replicates): 0.4% and 0.6% and 0.2%
ALDH (+) Cell number (10^4 cells) ave ([8]; MCF-7, 1 µM): 0.09 10^4 cells
ALDH (-) Cell number (10^4 cells) ave ([8]; MCF-7, 1 µM): 23.57 10^4 cells
ALDH (+) Cell number ave (fold) ([8]; MCF-7, 1 µM): 0.06 fold
ALDH (-) Cell number ave (fold) ([8]; MCF-7, 1 µM): 0.18 fold
ALDH (+) Cell number (10^4 cells) ([8]; MCF-7, 1 µM, single replicates): 0.14 10^4 cells and 0.08 10^4 cells and 0.05 10^4 cells
ALDH (-) Cell number (10^4 cells) ([8]; MCF-7, 1 µM, single replicates): 23.86 10^4 cells and 20.92 10^4 cells and 25.95 10^4 cells
cytotoxicity against ALDH-positive cells ([8]; MCF-7, lower concentrations): selective and potent cytotoxicity against ALDH-positive cells
